The values below come from US9775902B2, “Compounds and methods for treatment of stroke” (FIBROGEN, INC, priority 2006, dated 2017).

Assay [1] has as its system erythropoietin (EPO). The experiment in a line: EPO expression in Hep3B cells (QUANTIKINE immunoassay of conditioned media). The assay is classed as cell-based, Human. As to conditions: for Fold Increase Over Control: EPO, vs 1% DMSO control; for EPO: conditioned media after overnight incubation with compound. As to the method:
The effect of compounds of the present invention on expression of cytoprotective and neuroprotective factors in cells was evaluated as follows. Human cells derived from hepatocarcinoma (Hep3B) tissue (see, e.g., American Type Culture Collection, Manassas Va.) were seeded into 35 mm culture dishes and grown at 37° C., 20% O2, 5% CO2 in Minimal Essential Medium (MEM), Earle's balanced salt solution (Mediatech Inc., Herndon Va.), 2 mM L-glutamine, 0.1 mM non-essential amino acids, 1 mM sodium pyruvate, and 10% FBS. When cell layers reached confluence, the media was replaced with OPTI-MEM media (Invitrogen Life Technologies, Carlsbad Calif.) and cell layers were incubated for approximately 24 hours in 20% O2, 5% CO2 at 37° C. Various compounds of the present invention or 1% DMSO (negative control) were then added to existing media and incubation was continued overnight.
Following incubation, the conditioned media was collected from cell cultures and analyzed for erythropoietin (EPO) expression using a QUANTIKINE immunoassay (R&D Systems, Inc., Minneapolis Minn.) according to the manufacturer's instructions.

For assay [2], the system named is vascular endothelial growth factor (VEGF). Nature of the assay: VEGF expression in Kelly neuroblastoma cells. The assay is classed as cell-based. Particulars: for VEGF: conditioned media after overnight incubation. The procedure: (§1) The effect of compounds of the present invention on expression of cytoprotective and neuroprotective factors in neuroblastoma cells was evaluated as follows. Kelly neuroblastoma cells (see, e.g., DSMZ, cat# ACC-355, Braunschweig Germany) were treated with various compounds of the present invention or 1% DMSO (negative control). Following an overnight incubation, the conditioned media was collected from cell cultures and analyzed for erythropoietin (EPO) and vascular endothelial growth factor (VEGF) expression using a QUANTIKINE immunoassay (R&D Systems, Inc., Minneapolis Minn.) according to the manufacturer's instructions.

For assay [3], the system named is erythropoietin (EPO). Nature of the assay: EPO expression in Kelly neuroblastoma cells. Type of assay: cell-based. Particulars: for EPO: conditioned media after overnight incubation. The procedure: as §1
The test system of another assay is erythropoietin. The experiment in a line: Plasma EPO in mice after intravenous injection. Type of assay: in vivo, Swiss Webster mice. Particulars: mouse plasma, 20 mg/kg i.v., four hours after injection; for fold induction at 20 mg/kg: iv, 4 h, read-out: EPO Fold Increase; for EPO: mouse EPO ELISA kit (**). The procedure:
(§2) The effect of compounds of the present invention on expression of cytoprotective and neuroprotective factors in vivo was evaluated as follows. In one series of experiments, male Swiss Webster mice (29-34 g) were administered various compounds of the present invention via intravenous injection into the caudal tail vein. Animals treated by intravenous injection received a 6 ml/kg volume of either 5% Dextrose with an equimolar amount of NaOH or Meglumine (vehicle control) or 20 mg/kg of a compound of the present invention in 5% dextrose with an equimolar amount of NaOH or Meglumine. Four hours after injection, the animals were anesthetized and exsanguinated. Plasma samples were collected in EDTA and heparin coated microtainer tubes. Plasma samples were assayed for erythropoietin and VEGF using commercially-available ELISA kits purchased from R & D Systems (Minneapolis Minn.).
On the technique in general: In an ELISA, binding on a coated surface is turned into a signal by an enzyme label.

The next assay deals with VEGF. Nature of the assay: Plasma VEGF in mice after intravenous injection. The assay is classed as in vivo, Swiss Webster mice. As to conditions: mouse plasma, 20 mg/kg i.v., four hours after injection; for fold induction at 20 mg/kg: iv, 4 h, read-out: VEGF Fold Increase. The procedure: as §2

Consider `O=C(O)CNC(=O)c1nc(Cl)c2ccccc2c1O` [Compound A, [(1-Chloro-4-hydroxy-isoquinoline-3-carbonyl)-amino]-acetic acid], for which, in the assay with erythropoietin (EPO) [1], the “Fold Increase Over Control” value came out at 13.6 and the EPO stood at 18.3 mIU/ml.

`O=C(O)CNC(=O)c1nc(Br)c2cc(Br)sc2c1O` [Compound AD, [(2,4-Dibromo-7-hydroxy-thieno[3,2-c]pyridine-6-carbonyl)-amino]-acetic acid]: in assay [2], the “VEGF Fold Increase” value is reported as 3.5 and the VEGF was found to be 5123.0 pg/mL. Moreover, in the assay on erythropoietin (EPO) [3], the “EPO Fold Increase” value is listed as 7.3 and the EPO worked out at 138.2 mIU/ml. Also, in the assay on erythropoietin, the fold induction at 20 mg/kg was 27.4 and the EPO stood at 1997 pg/mL. Further, in the assay with erythropoietin (EPO) [1], the “Fold Increase Over Control” value was 6.5 and the EPO worked out at 34.9 mIU/ml. For the same compound, in the assay on VEGF, the fold induction at 20 mg/kg was 2.54 and the VEGF stood at 66 pg/mL.

Regarding `O=C(O)CNC(=O)c1ncc2cc(Oc3ccccc3)sc2c1O` [Compound AG, [(7-Hydroxy-2-phenoxy-thieno[3,2-c]pyridine-6-carbonyl)-amino]-acetic acid], in assay [2], the “VEGF Fold Increase” value is 5.9 and the VEGF turned out to be 8670 pg/mL. In the assay with erythropoietin (EPO) [3], the “EPO Fold Increase” value is 14.44 and the EPO turned out to be 273 mIU/ml. In addition, in the assay on erythropoietin, the fold induction at 20 mg/kg came to 1.91 and the EPO was determined as 303 pg/mL. Also, in the assay with erythropoietin (EPO) [1], the “Fold Increase Over Control” value turned out to be 8.5 and the EPO amounted to 27.3 mIU/ml. For the same compound, in the assay on VEGF, the fold induction at 20 mg/kg was 1.76 and the VEGF is 51 pg/mL.

For the compound `N#Cc1nc(C(=O)NCC(=O)O)c(O)c2sccc12` [Compound AH, [(4-Cyano-7-hydroxy-thieno[3,2-c]pyridine-6-carbonyl)-amino]-acetic acid], in assay [2], the “VEGF Fold Increase” value is recorded as 4.5 and the VEGF was found to be 6590 pg/mL. In addition, in the assay with erythropoietin (EPO) [3], the “EPO Fold Increase” value stood at 11.95 and the EPO came out at 225.8 mIU/ml. In the assay with erythropoietin, the fold induction at 20 mg/kg was determined as 11.6 and the EPO is 1242 pg/mL. In addition, in the assay on erythropoietin (EPO) [1], the “Fold Increase Over Control” value came to 7.1 and the EPO is 13.4 mIU/ml. In the assay with VEGF, the fold induction at 20 mg/kg amounted to 1.76 and the VEGF was determined as 44 pg/mL.

Regarding `O=C(O)CNC(=O)c1nc(-c2ccoc2)c2ccsc2c1O` [Compound AI, [(4-Furan-3-yl-7-hydroxy-thieno[3,2-c]pyridine-6-carbonyl)-amino]-acetic acid], in assay [2], the “VEGF Fold Increase” value turned out to be 4.8 and the VEGF turned out to be 7003 pg/mL. For the same compound, in the assay with erythropoietin (EPO) [3], the “EPO Fold Increase” value was 17.02 and the EPO is recorded as 321.6 mIU/ml. Moreover, in the assay with erythropoietin, the fold induction at 20 mg/kg is 1.96 and the EPO was found to be 221 pg/mL. Also, in the assay on erythropoietin (EPO) [1], the “Fold Increase Over Control” value is 6.1 and the EPO came to 7.9 mIU/ml. In the assay with VEGF, the fold induction at 20 mg/kg was determined as 0.91 and the VEGF was 20 pg/mL.

As to `O=C(O)CNC(=O)c1ncc2c(-c3ccc(F)cc3)c(-c3ccc(F)cc3)sc2c1O` [Compound AJ, {[2,3-Bis-(4-fluoro-phenyl)-7-hydroxy-thieno[3,2-c]pyridine-6-carbonyl]-amino}-acetic acid], in assay [2], the “VEGF Fold Increase” value was 3.0 and the VEGF is 4102 pg/mL. In the assay with erythropoietin, the fold induction at 20 mg/kg was 2.53 and the EPO was 271 pg/mL. Moreover, in the assay on erythropoietin (EPO) [1], the “Fold Increase Over Control” value was 42.8 and the EPO is listed as 62.9 mIU/ml. Also, in the assay on VEGF, the fold induction at 20 mg/kg came out at 1.16 and the VEGF was 29 pg/mL.

`COc1cccc(Oc2cccc3c(O)c(C(=O)NCC(=O)O)nc(C#N)c23)c1` [Compound AP, {[1-Cyano-4-hydroxy-8-(3-methoxy-phenoxy)-isoquinoline-3-carbonyl]-amino}-acetic acid]: in assay [2], the “VEGF Fold Increase” value was determined as 2.2 and the VEGF stood at 3266 pg/mL. In addition, in the assay on erythropoietin (EPO) [3], the “EPO Fold Increase” value is 1.44 and the EPO stood at 27.2 mIU/ml. Further, in the assay on erythropoietin, the fold induction at 20 mg/kg came out at 20.1 and the EPO worked out at 3595 pg/mL. Moreover, in the assay with erythropoietin (EPO) [1], the “Fold Increase Over Control” value is reported as 17.2 and the EPO is on record as 53.4 mIU/ml. In the assay on VEGF, the fold induction at 20 mg/kg came out at 0.43 and the VEGF was determined as 27 pg/mL.

For the compound `O=C(O)CNC(=O)c1nc2cc(Cl)ccc2c(-c2cccc(C(F)(F)F)c2)c1O` [Compound AU, {[7-Chloro-3-hydroxy-4-(3-trifluoromethyl-phenyl)-quinoline-2-carbonyl]-amino}-acetic acid], in assay [2], the “VEGF Fold Increase” value was 5.1 and the VEGF was 6877 pg/mL. In the assay with erythropoietin (EPO) [3], the “EPO Fold Increase” value was 4.16 and the EPO is recorded as 109.1 mIU/ml. Further, in the assay on erythropoietin (EPO) [1], the “Fold Increase Over Control” value worked out at 7.1 and the EPO is reported as 19.2 mIU/ml.

`O=C(O)CNC(=O)c1nc2cc(Cl)ccc2cc1O` [Compound B, [(7-Chloro-3-hydroxy-quinoline-2-carbonyl)-amino]-acetic acid]: in the assay on erythropoietin (EPO) [1], the “Fold Increase Over Control” value was 9.8 and the EPO amounted to 14.2 mIU/ml.

Turning to `O=C(O)CNC(=O)c1nc2ccc(Oc3ccccc3)cc2cc1O` [Compound C, [(3-Hydroxy-6-phenoxy-quinoline-2-carbonyl)-amino]-acetic acid], in assay [2], the “VEGF Fold Increase” value is 9.1 and the VEGF was found to be 1445.7 pg/mL. Also, in the assay with erythropoietin (EPO) [3], the “EPO Fold Increase” value stood at 3.5 and the EPO was 21.8 mIU/ml. Also, in the assay on erythropoietin (EPO) [1], the “Fold Increase Over Control” value worked out at 2.2 and the EPO amounted to 241.4 mIU/ml.

For `Cc1cccc2c(Cl)nc(C(=O)NCC(=O)O)c(O)c12` [Compound D, [(1-Chloro-4-hydroxy-5-methyl-isoquinoline-3-carbonyl)-amino]-acetic acid], in the assay with erythropoietin (EPO) [1], the “Fold Increase Over Control” value worked out at 2.7 and the EPO amounted to 205.7 mIU/ml.

As to `COc1ccc(Oc2ccc3c(Cl)nc(C(=O)NCC(=O)O)c(O)c3c2)cc1` [Compound H, {[1-Chloro-4-hydroxy-6-(4-methoxy-phenoxy)-isoquinoline-3-carbonyl]-amino}-acetic acid], in the assay on erythropoietin (EPO) [1], the “Fold Increase Over Control” value was found to be 5.4 and the EPO was 84.0 mIU/ml.

Regarding `Cc1nc(C(=O)NCC(=O)O)c(O)c2ccc(Oc3ccccc3)cc12` [Compound J, [(4-Hydroxy-1-methyl-7-phenoxy-isoquinoline-3-carbonyl)-amino]-acetic acid], the EPO with erythropoietin (EPO) [1] was 120.0 mIU/ml.

Regarding `Cc1nc(C(=O)NCC(=O)O)c(OCc2ccccc2)c2ccc(Oc3ccccc3)cc12` [Compound K, [(4-Benzyloxy-1-methyl-7-phenoxy-isoquinoline-3-carbonyl)-amino]-acetic acid], in the assay with erythropoietin (EPO) [1], the “Fold Increase Over Control” value is recorded as 1.8 and the EPO was determined as 57.4 mIU/ml.

Regarding `O=C(O)CNC(=O)c1nc(Sc2ccc(Cl)cc2)c2ccccc2c1O` [Compound U, {[1-(4-Chloro-phenylsulfanyl)-4-hydroxy-isoquinoline-3-carbonyl]-amino}-acetic acid], in assay [2], the “VEGF Fold Increase” value turned out to be 9.7 and the VEGF is 1526.0 pg/mL. Also, in the assay with erythropoietin (EPO) [3], the “EPO Fold Increase” value was determined as 1.4 and the EPO amounted to 8.9 mIU/ml.

`O=C(O)CNC(=O)c1ncc2cc(SC3CCCCC3)ccc2c1O` [Compound V, [(7-Cyclohexylsulfanyl-4-hydroxy-isoquinoline-3-carbonyl)-amino]-acetic acid]: in assay [2], the “VEGF Fold Increase” value amounted to 13.5 and the VEGF stood at 2132.0 pg/mL. In the assay on erythropoietin (EPO) [3], the “EPO Fold Increase” value stood at 3.9 and the EPO was found to be 24.2 mIU/ml.

Take `N#Cc1nc(C(=O)NCC(=O)O)c(O)c2cccc(Oc3ccccc3)c12` [Compound W, [(1-Cyano-4-hydroxy-8-phenoxy-isoquinoline-3-carbonyl)-amino]-acetic acid]: in assay [2], the “VEGF Fold Increase” value worked out at 5.0 and the VEGF came out at 1846 pg/mL. Moreover, in the assay on erythropoietin (EPO) [3], the “EPO Fold Increase” value is on record as 11.35 and the EPO came out at 214.6 mIU/ml. Further, in the assay on erythropoietin, the fold induction at 20 mg/kg turned out to be 45.6 and the EPO was 725.4 pg/mL. For the same compound, in the assay with VEGF, the fold induction at 20 mg/kg was determined as 1.38 and the VEGF came out at 40 pg/mL.
